Like-named read-outs stand apart in the source and are kept apart here.
Key:
basophils = assay: Basophil activation in human whole blood (Flow2 CAST kit, CD63 positive cells); type: cell-based; conditions: Homo sapiens
Summary of the method: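 Human whole blood (K2-EDTA) preincubated 60 minutes at 37° C with compound serial dilutions or DMSO (0.3% final), then stimulated with anti-FcεRI mAb or fMLP and stained for CD63/CCR3. Percent CD63+ among ≥200 CCR3-high basophils by flow cytometry, normalized to stimulated vehicle as 100%. EC50 from four-parameter fits, geometric means in nM, concentrations corrected for reagent dilution.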

[1] = Hepatocyte stability, 0.01% final DMSO, 1 μM substrate (t1/2^b); type: in vitro ADME; conditions: human, hepatocytes, TA with 0.01% final DMSO
Method: Alternatively, assay reagents and/or conditions can be modified in determining the inhibitory activities to PI3K isomers. In additional studies, similar assay using TA and 0.01% final DMSO concentration were incubated with 1 million hepatocytes/mL at 1 μM substrate in duplicate. The incubation was carried out at 37° C. with 5% CO2 and saturating humidity.

PI3Kδ = target: T1, PI3Kδ (Homo sapiens, UniProt O00329); assay: Enzymatic activity of PI3K isoforms, TR-FRET assay (PIP3 formation); type: biochemical; conditions: PI3Kδ; TR-FRET, 2×Km ATP, 10 μM PIP2; read-out: IC50
T1 construct: made in house
Summary of the method: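 Recombinant heterodimeric class I PI3K; PIP3 product measured by TR-FRET competition with labelled PIP3 for Eu-GRP-1 PH domain. Reaction 30 min at 25 °C, stopped with 10 mM EDTA.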

[2] = basophils activated with anti-FcεRI mAb or fMLP, geometric mean
[3] = 1 μM substrate, samples at 0, 1, 3, 6 hours, read-out: human hepatocyte t½^b

T1 sequence (O00329 whole entry, canonical isoform): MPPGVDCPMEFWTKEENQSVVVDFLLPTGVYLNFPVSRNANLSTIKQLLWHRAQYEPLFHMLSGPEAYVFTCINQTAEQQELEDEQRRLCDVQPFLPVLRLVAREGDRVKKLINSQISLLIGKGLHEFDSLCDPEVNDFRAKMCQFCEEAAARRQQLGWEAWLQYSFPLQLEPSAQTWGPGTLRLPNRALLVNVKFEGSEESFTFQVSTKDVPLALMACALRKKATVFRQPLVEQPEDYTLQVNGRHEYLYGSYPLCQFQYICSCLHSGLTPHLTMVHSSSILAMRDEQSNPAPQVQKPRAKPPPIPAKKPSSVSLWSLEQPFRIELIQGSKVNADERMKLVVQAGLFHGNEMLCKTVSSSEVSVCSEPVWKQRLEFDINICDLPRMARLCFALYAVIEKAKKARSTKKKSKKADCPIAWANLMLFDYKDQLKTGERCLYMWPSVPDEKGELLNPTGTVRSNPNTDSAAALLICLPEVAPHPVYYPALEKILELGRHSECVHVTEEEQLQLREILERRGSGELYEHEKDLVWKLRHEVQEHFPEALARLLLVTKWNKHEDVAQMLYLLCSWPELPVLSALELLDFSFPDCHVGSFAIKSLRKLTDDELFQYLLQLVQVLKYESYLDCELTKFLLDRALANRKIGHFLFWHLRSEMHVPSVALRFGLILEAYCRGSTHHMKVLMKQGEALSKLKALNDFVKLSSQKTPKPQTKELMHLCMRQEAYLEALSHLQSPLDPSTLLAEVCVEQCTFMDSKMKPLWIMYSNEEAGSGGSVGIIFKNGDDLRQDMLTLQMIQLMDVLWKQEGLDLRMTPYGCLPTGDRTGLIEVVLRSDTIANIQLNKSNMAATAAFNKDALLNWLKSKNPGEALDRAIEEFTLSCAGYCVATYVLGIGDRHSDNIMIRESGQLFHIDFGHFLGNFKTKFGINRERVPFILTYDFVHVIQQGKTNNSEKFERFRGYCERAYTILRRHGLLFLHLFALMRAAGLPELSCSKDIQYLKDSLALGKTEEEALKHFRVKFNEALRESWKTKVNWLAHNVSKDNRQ
T1 sequence (P27986 whole entry partner, canonical isoform): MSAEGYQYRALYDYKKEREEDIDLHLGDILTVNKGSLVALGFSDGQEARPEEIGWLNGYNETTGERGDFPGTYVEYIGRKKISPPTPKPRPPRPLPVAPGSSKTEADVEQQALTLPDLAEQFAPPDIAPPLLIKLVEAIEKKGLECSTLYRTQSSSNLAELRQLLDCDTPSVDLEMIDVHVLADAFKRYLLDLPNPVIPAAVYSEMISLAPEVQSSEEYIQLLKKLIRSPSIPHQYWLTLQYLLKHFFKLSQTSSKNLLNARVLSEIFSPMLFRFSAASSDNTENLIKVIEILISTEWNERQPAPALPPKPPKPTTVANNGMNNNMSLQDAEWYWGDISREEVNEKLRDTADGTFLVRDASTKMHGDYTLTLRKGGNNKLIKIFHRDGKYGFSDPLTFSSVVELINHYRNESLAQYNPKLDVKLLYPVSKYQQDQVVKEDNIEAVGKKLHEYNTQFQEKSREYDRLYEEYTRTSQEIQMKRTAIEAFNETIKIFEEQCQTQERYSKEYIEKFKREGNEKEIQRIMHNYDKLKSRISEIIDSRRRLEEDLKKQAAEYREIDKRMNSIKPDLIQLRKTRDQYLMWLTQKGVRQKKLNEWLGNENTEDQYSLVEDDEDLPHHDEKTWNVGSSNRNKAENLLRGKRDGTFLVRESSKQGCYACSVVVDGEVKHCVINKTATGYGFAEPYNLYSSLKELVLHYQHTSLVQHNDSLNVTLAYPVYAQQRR

| Compound | EC50 (basophils; [2]) [nM] | half-life at 1 μM [1, 3] [h] | IC50 (PI3Kδ) [nM] | EC50 (basophils; basophil activation) [nM] | half-life at 1 μM ([1]; human hepatocytes, read-out: t1/2^b) [h] |
| --- | --- | --- | --- | --- | --- |
| CC(Nc1nc(N)nc(N)c1C#N)c1nc2cccc(Cl)c2c(=O)n1-c1cccc(C#N)c1 (single isomer, unassigned) [Compound 12a] | 1 to 10 | > 10 | 1 to 10 |  |  |
| CC(Nc1nc(N)nc(N)c1C#N)c1nc2ccc(F)c(F)c2c(=O)n1-c1cc(F)cc(F)c1 (single isomer, unassigned) [Compound 29a] | 1 to 10 | > 10 | 10 to 50 |  |  |
| CC(Nc1nc(N)nc(N)c1C(N)=O)c1nc2cccc(Cl)c2c(=O)n1-c1ccccc1 (single isomer, unassigned) [Compound 183a] | 10 to 50 | 6 to 10 | < 1 |  |  |
| CC(Nc1nc(N)nc(N)c1C#N)c1nc2c(Cl)cc(F)cc2c(=O)n1-c1cc(F)cc(F)c1 (single isomer, unassigned) [Compound 89a] | 1 to 10 | 6 to 10 | 1 to 10 |  |  |
| COc1cc(C(F)F)cc(-n2c(C(C)Nc3nc(N)nc(N)c3C#N)nc3cccc(Cl)c3c2=O)c1 (single isomer, unassigned) [Compound 190a] | 10 to 50 | 1 to 3 | 1 to 10 |  |  |
| C[C@H](Nc1nc(N)nc(N)c1C#N)c1nc2cccc(F)c2c(=O)n1-c1cccc(C(F)F)c1 [Compound 121a, (S)-2,4-diamino-6-(1-(3-(3-(difluoromethyl)phenyl)-5-fluoro-4-oxo-3,4-dihydroquinazolin-2-yl)ethylamino)pyrimidine-5-carbonitrile] | 1 to 10 | 3 to 6 | 1 to 10 |  |  |
| CC(Nc1nc(N)nc(N)c1C#N)c1nc2c(C(F)F)cccc2c(=O)n1-c1ccccc1 (single isomer, unassigned) [Compound 56a] | 1 to 10 | 6 to 10 | 10 to 50 |  |  |
| CC(Nc1nc(N)nc(N)c1C#N)c1nc2cccc(Cl)c2c(=O)n1-c1c(F)cccc1F (single isomer, unassigned) [Compound 145a] | 1 to 10 | 6 to 10 | 1 to 10 |  |  |
| CC(Nc1nc(N)nc(N)c1C#N)c1nc2cccc(C(N)=O)c2c(=O)n1-c1cc(F)cc(F)c1 (single isomer, unassigned) [Compound 91a] | 10 to 50 | > 10 | 10 to 50 |  |  |
| CC(Nc1nc(N)nc(N)c1C#N)c1nc2cccc(F)c2c(=O)n1-c1cccc(F)c1 (single isomer, unassigned) [Compound 182a] | 1 to 10 | > 10 | 1 to 10 | < 2 | > 20 |
| CC(Nc1nc(N)nc(N)c1C#N)c1nc2ccc(F)cc2c(=O)n1-c1cccc(C#N)c1 (single isomer, unassigned) [Compound 13a] | 1 to 10 | > 10 | 10 to 50 |  |  |
| CC(Nc1nc(N)nc(N)c1C#N)c1nc2c(F)ccc(Cl)c2c(=O)n1-c1cccc(C#N)c1 (single isomer, unassigned) [Compound 181a] | < 1 | 6 to 10 | 1 to 10 |  |  |
| CCC(Nc1nc(N)nc(N)c1C#N)c1nc2c(F)ccc(F)c2c(=O)n1-c1cccc(F)c1 (single isomer, unassigned) [Compound 151a] | 1 to 10 | 3 to 6 | 1 to 10 |  |  |
| CC(Nc1nc(N)nc(N)c1C#N)c1nc2cccc(Cl)c2c(=O)n1-c1cccc(CC(F)F)c1 (single isomer, unassigned) [Compound 120a] | 1 to 10 | 1 to 3 | 1 to 10 |  |  |
| CC(Nc1nc(N)nc(N)c1C#N)c1nc2c(Cl)cccc2c(=O)n1-c1ccccc1 (single isomer, unassigned) [Compound 22a] | 1 to 10 | > 10 | 1 to 10 |  |  |
| COc1cccc(-n2c(C(C)Nc3nc(N)nc(N)c3C#N)nc3cccc(Cl)c3c2=O)c1 (single isomer, unassigned) [Compound 185a] | < 1 | 1 to 3 | < 1 |  |  |
| CC(Nc1nc(N)nc(N)c1C#N)c1nc2ccc(F)c(Cl)c2c(=O)n1-c1cc(F)cc(F)c1 (single isomer, unassigned) [Compound 140a] | 1 to 10 | 3 to 6 | 1 to 10 |  |  |
| CCC(Nc1nc(N)nc(N)c1C#N)c1nc2c(F)ccc(F)c2c(=O)n1-c1cccc(C#N)c1 (single isomer, unassigned) [Compound 152a] | 1 to 10 | 3 to 6 | 10 to 50 |  |  |
| CC(Nc1nc(N)nc(N)c1C#N)c1nc2cccc(S(C)(=O)=O)c2c(=O)n1-c1cc(F)cc(C(F)F)c1 (single isomer, unassigned) [Compound 98a] | > 50 | 3 to 6 | 10 to 50 |  |  |
| CC(Nc1nc(N)nc(N)c1C#N)c1nc2cccc(Cl)c2c(=O)n1-c1cccc(C(F)(F)F)c1 (single isomer, unassigned) [Compound 47a] | 1 to 10 | 3 to 6 | 1 to 10 |  |  |
| CCCC(Nc1nc(N)nc(N)c1C#N)c1nc2cccc(F)c2c(=O)n1-c1cc(F)cc(F)c1 (single isomer, unassigned) [Compound 175a] | 1 to 10 | 6 to 10 | 1 to 10 |  |  |
| CCC(Nc1nc(N)nc(N)c1C#N)c1nc2ccc(F)cc2c(=O)n1-c1cc(F)cc(F)c1 (single isomer, unassigned) [Compound 26a] | 1 to 10 | > 10 | 10 to 50 |  |  |
| CC(Nc1nc(N)nc(N)c1C#N)c1nc2ccc(F)c(Cl)c2c(=O)n1-c1cccc(C#N)c1 (single isomer, unassigned) [Compound 176a] | 1 to 10 | > 10 | 10 to 50 |  |  |
| C[C@H](Nc1nc(N)nc(N)c1C#N)c1nc2c(C#N)cc(F)cc2c(=O)n1-c1cccc(F)c1 [Compound 154a, (S)-2-(1-((2,6-diamino-5-cyanopyrimidin-4-yl)amino)ethyl)-6-fluoro-3-(3-fluorophenyl)-4-oxo-3,4-dihydroquinazoline-8-carbonitrile] | 1 to 10 | > 10 | 1 to 10 |  |  |
| CC(Nc1nc(N)nc(N)c1C#N)c1nc2cccc(C#N)c2c(=O)n1-c1cc(F)cc(F)c1 (single isomer, unassigned) [Compound 112a] | 1 to 10 | > 10 | 1 to 10 |  |  |
| CC(Nc1nc(N)nc(N)c1C#N)c1nc2c(C#N)cccc2c(=O)n1-c1cccc(C(F)F)c1 (single isomer, unassigned) [Compound 160a] | 1 to 10 | 3 to 6 | 1 to 10 |  |  |
| CC(Nc1nc(N)nc(N)c1C#N)c1nc2c(C#N)cc(F)cc2c(=O)n1-c1ccccc1 (single isomer, unassigned) [Compound 155a] | 10 to 50 | > 10 | 1 to 10 |  |  |
| CCC(Nc1nc(N)nc(N)c1C#N)c1nc2c(F)ccc(F)c2c(=O)n1-c1ccccc1 (single isomer, unassigned) [Compound 150a] | 1 to 10 | 3 to 6 | 1 to 10 |  |  |
| CC(Nc1nc(N)nc(N)c1C#N)c1nc2cccc(C(F)F)c2c(=O)n1-c1cccc(C#N)c1 (single isomer, unassigned) [Compound 63a] | 1 to 10 | > 10 | 1 to 10 |  |  |
| CC(Nc1nc(N)nc(N)c1C#N)c1nc2cccc(Cl)c2c(=O)n1-c1cc(F)cc(OC(F)(F)F)c1 (single isomer, unassigned) [Compound 193a] | 1 to 10 | 1 to 3 | 1 to 10 |  |  |

Source: patent US9029384B2, “Phosphatidylinositol 3-kinase inhibitors” (Gilead Calistoga LLC, priority 2012, dated 2015)
